From ChEMBL document CHEMBL3352453, “Inhibitory potency of flavonoid derivatives on influenza virus neuraminidase” (Bioorg Med Chem Lett, 2014) come the findings set out here.

Data set [1] in a line: Cytotoxicity against MDCK cells. The class given is cell-based, Canis lupus familiaris. Particulars: dog.
Data set [2] is described as follows: Selectivity index, ratio of CC50 for MDCK cells to IC50 for influenza A virus (A/Perth/16/2009(H3N2)). The class given is functional.
Data set [3] can be described thus: Inhibition of influenza B virus (B/Brisbane/60/2008) neuraminidase using MUNANA substrate pre-incubated for 30 mins before substrate addition by fluorometric assay.

A value given as a limit tells only on which side of the number the result lay.

A word on the CC50: it is the concentration giving 50% cytotoxicity. A high value points to better tolerance by the cells. Usually IC50 stands for the concentration that gives 50% inhibition. High values mean lower potency, low ones higher potency. As for `C[C@@H]1O[C@@H](Oc2c(-c3ccc(O)c(O)c3)oc3cc(O)cc(O)c3c2=O)[C@H](O)[C@H](O)[C@H]1O` [QUERCITRIN], the CC50 in data set [1] was more than 446 µM. Moreover, in data set [2], the “Ratio CC50/IC50” value is more than 4.1. The same compound yielded an IC50 in data set [3] of 112 µM.
For `O=c1c(O)c(-c2ccc(O)cc2)oc2cc(O)cc(O)c12` [KAEMPFEROL], the 50% cytotoxic concentration (CC50) in data set [1] was determined as 581 µM. For the same compound, in data set [2], the “Ratio CC50/IC50” value was 6.8. In addition, in data set [3], the 50% inhibitory concentration (IC50) was found to be 90.8 µM.
Taken in the same sequence, the figures for `O=c1cc(-c2ccc(O)c(O)c2)oc2cc(O[C@@H]3O[C@H](CO)[C@@H](O)[C@H](O)[C@H]3O)cc(O)c12` [GALUTEOLIN] were more than 446 µM, more than 6.7 and 57.2 µM.
In the case of `O=c1c(O[C@@H]2O[C@H](CO)[C@@H](O)[C@H](O)[C@H]2O)c(-c2ccc(O)c(O)c2)oc2cc(O)cc(O)c12` [ISOQUERCETIN], in data set [1], the half-maximal cytotoxic concentration (CC50) is more than 431 µM. Moreover, the “Ratio CC50/IC50” value in data set [2] was more than 1.2. Inhibition in data set [3] was half-maximal at 384 µM (IC50).
Regarding `O=c1c(O[C@@H]2O[C@H](CO)[C@H](O)[C@H](O)[C@H]2O)c(-c2ccc(O)c(O)c2)oc2cc(O)cc(O)c12` [HYPEROSIDE], in data set [1], the CC50 was more than 431 µM. Besides, in data set [2], the “Ratio CC50/IC50” value is more than 6.9. The compound further returned an IC50 in data set [3] of 88.1 µM.
Taken in the same sequence, the figures for `C[C@@H]1O[C@@H](OC[C@H]2O[C@@H](Oc3c(-c4ccc(O)c(O)c4)oc4cc(O)cc(O)c4c3=O)[C@H](O)[C@@H](O)[C@@H]2O)[C@H](O)[C@H](O)[C@H]1O` [RUTIN] were more than 328 µM, more than 3.4 and 105 µM.
For the compound `CCOC(=O)C1=C[C@@H](OC(CC)CC)[C@H](NC(C)=O)[C@@H](N)C1` [OSELTAMIVIR], in data set [3], the IC50 was found to be 0.0454 µM.
